Consider 27 compounds from US11524966B1 (Valo Early Discovery, Inc., priority 2017, dated 2022).

The test addresses T1, USP28 (His-tagged USP28-FL-mammalian) (Homo sapiens, UniProt Q96RU2).
T1 construct: Expression of USP28 (1-1077)-TEV-6*His (pTT5 vector); made in house; host or cells: Expi293f cells (pTT5 vector)
T1 sequence (Q96RU2 1-1077): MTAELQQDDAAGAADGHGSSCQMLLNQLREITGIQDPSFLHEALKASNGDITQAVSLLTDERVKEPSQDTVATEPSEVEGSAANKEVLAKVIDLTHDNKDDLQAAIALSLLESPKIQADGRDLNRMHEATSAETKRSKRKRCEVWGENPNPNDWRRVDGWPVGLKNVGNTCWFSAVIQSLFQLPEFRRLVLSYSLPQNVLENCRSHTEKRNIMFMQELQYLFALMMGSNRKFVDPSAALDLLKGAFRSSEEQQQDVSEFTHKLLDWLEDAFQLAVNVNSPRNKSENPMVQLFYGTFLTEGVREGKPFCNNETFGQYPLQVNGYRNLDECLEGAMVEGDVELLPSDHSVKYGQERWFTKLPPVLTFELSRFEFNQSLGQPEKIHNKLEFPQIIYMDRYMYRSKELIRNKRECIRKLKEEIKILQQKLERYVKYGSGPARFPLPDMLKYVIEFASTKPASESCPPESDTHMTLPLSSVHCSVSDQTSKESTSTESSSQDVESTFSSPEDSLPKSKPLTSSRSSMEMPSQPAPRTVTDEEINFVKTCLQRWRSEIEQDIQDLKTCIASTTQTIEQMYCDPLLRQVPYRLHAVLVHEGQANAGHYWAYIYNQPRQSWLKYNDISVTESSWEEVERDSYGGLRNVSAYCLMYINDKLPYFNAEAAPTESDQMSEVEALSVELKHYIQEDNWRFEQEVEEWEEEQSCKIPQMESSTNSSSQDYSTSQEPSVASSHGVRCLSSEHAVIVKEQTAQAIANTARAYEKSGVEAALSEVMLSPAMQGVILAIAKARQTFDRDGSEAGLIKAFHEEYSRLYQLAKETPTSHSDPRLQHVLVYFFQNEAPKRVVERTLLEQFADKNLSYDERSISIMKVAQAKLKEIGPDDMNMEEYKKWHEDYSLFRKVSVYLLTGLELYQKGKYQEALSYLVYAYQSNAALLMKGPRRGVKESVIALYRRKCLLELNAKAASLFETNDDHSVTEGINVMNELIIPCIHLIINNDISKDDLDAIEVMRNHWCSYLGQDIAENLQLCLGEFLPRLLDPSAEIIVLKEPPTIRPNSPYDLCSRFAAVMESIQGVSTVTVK
Nature of the test: Ubiquitin-Rhodamine 110 Assay for USP28 Activity, Example A-1(a). The class given is biochemical. The settings on record: Ub-Rh110 assay, Example A-1(a); read-out: USP28 A-1(a) IC50 range. An outline of the steps: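 IC50 from 4-parameter logistic fit of percent inhibition versus no-enzyme and DMSO controls; compounds 25 μM to 1.3 nM, 3-fold. Ub-Rh110 cleavage (25 nM, below Km) by […] mammalian-expressed USP28-FL-His ran 45 min at room temperature, stopped with 10 mM citric acid, read ex 485/em 535.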

Turning to `Cc1nc2sc(C(=O)N[C@H]3COc4cc(N5CC6CCC(C5)N6)ccc4C3)c(N)c2s1` [Example 1-23, N-((3R)-7-(3,8-diazabicyclo[3.2.1]octan-3-yl)chroman-3-yl)-6-amino-2-methylthieno[2,3-d]thiazole-5-carboxamide], the 50% inhibitory concentration (IC50) (commonly the concentration needed to halve the response being measured) was 1 to 50 nM.

Regarding `Cc1nc2sc(C(=O)N[C@@H]3COc4cc(N5CC6CCC(C5)N6)ccc4C3)c(N)c2s1` [Example 1-24, N-((3S)-7-(3,8-diazabicyclo[3.2.1]octan-3-yl)chroman-3-yl)-6-amino-2-methylthieno[2,3-d]thiazole-5-carboxamide], the IC50 fell in the range of 200 to 2000 nM. In the case of `Cc1nc2sc(C(=O)N[C@H]3COc4cc(N5CCNCC5)ccc4C3)c(N)c2s1` [Example 1-25, (R)-6-amino-2-methyl-N-(7-(piperazin-1-yl)chroman-3-yl)thieno[2,3-d]thiazole-5-carboxamide] it was 1 to 50 nM; in that of `Cc1nc2sc(C(=O)N[C@@H]3COc4cc(N5CCNCC5)ccc4C3)c(N)c2s1` [Example 1-26, (S)-6-amino-2-methyl-N-(7-(piperazin-1-yl)chroman-3-yl)thieno[2,3-d]thiazole-5-carboxamide], 200 to 2000 nM. In the case of `Cc1ccc2c(N)c(C(=O)N[C@H]3COc4c(ccc(N5CCNCC5)c4F)C3)sc2n1` [Example 1-33, (R)-3-amino-N-(8-fluoro-7-(piperazin-1-yl)chroman-3-yl)-6-methylthieno[2,3-b]pyridine-2-carboxamide] it was 1 to 50 nM.

Take `Cc1ccc2c(N)c(C(=O)N[C@@H]3COc4c(ccc(N5CCNCC5)c4F)C3)sc2n1` [Example 1-34, (S)-3-amino-N-(8-fluoro-7-(piperazin-1-yl)chroman-3-yl)-6-methylthieno[2,3-b]pyridine-2-carboxamide]: the IC50 fell in the range of 200 to 2000 nM. In the case of `Cc1ccc2c(N)c(C(=O)N[C@H]3COc4cc(N5CCNCC5)c(F)cc4C3)sc2n1` [Example 1-35, (R)-3-amino-N-(6-fluoro-7-(piperazin-1-yl)chroman-3-yl)-6-methylthieno[2,3-b]pyridine-2-carboxamide] it was 1 to 50 nM; in that of `Cc1ccc2c(N)c(C(=O)N[C@@H]3COc4cc(N5CCNCC5)c(F)cc4C3)sc2n1` [Example 1-36, (S)-3-amino-N-(6-fluoro-7-(piperazin-1-yl)chroman-3-yl)-6-methylthieno[2,3-b]pyridine-2-carboxamide], above 2000 nM; in that of `Cc1ccc2c(N)c(C(=O)N[C@H]3COc4cc(N5CC6CNCC(C5)C6(F)F)ccc4C3)sc2n1` [Example 2-1, 3-Amino-N-((3R)-7-(9,9-difluoro-3,7-diazabicyclo[3.3.1]nonan-3-yl)chroman-3-yl)-6-methylthieno[2,3-b]pyridine-2-carboxamide], 1 to 50 nM. As for `Cc1ccc2c(N)c(C(=O)N[C@H]3COc4cc(N5CC6CC(C5)N6)ccc4C3)sc2n1` [Example 2-2, N-((3R)-7-(3,6-diazabicyclo[3.1.1]heptan-3-yl)chroman-3-yl)-3-amino-6-methylthieno[2,3-b]pyridine-2-carboxamide], the figure is 1 to 50 nM.

Consider `Cc1ccc2c(N)c(C(=O)N[C@@H]3COc4cc(N5CC6CC(C5)N6)ccc4C3)sc2n1` [Example 2-3, N-((3S)-7-(3,6-diazabicyclo[3.1.1]heptan-3-yl)chroman-3-yl)-3-amino-6-methylthieno[2,3-b]pyridine-2-carboxamide], for which the IC50 lay within 200 to 2000 nM. As to `Cc1ccc2c(N)c(C(=O)N[C@H]3COc4cc(N5CCNC[C@@H]5C)ccc4C3)sc2n1` [Example 2-4, 3-amino-6-methyl-N-((R)-7-((S)-2-methylpiperazin-1-yl)chroman-3-yl)thieno[2,3-b]pyridine-2-carboxamide], the concentration for half-maximal inhibition (IC50) is 1 to 50 nM. Turning to `Cc1ccc2c(N)c(C(=O)N[C@H]3COc4cc(N5CCNC[C@H]5C)ccc4C3)sc2n1` [Example 2-5, 3-amino-6-methyl-N-((R)-7-((R)-2-methylpiperazin-1-yl)chroman-3-yl)thieno[2,3-b]pyridine-2-carboxamide], the IC50 was 1 to 50 nM. In the case of `Cc1ccc2c(N)c(C(=O)N[C@H]3COc4cc(N5C6CCC5CNC6)ccc4C3)sc2n1` [Example 2-6, N-((3R)-7-(3,8-diazabicyclo[3.2.1]octan-8-yl)chroman-3-yl)-3-amino-6-methylthieno[2,3-b]pyridine-2-carboxamide], the IC50 lay in the range of 1 to 50 nM. As for `Cc1ccc2c(N)c(C(=O)N[C@H]3COc4cc(N5CCCC56CNC6)ccc4C3)sc2n1` [Example 2-7, (R)-N-(7-(2,5-diazaspiro[3.4]octan-5-yl)chroman-3-yl)-3-amino-6-methylthieno[2,3-b]pyridine-2-carboxamide], the figure is 1 to 50 nM. In the case of `Cc1ccc2c(N)c(C(=O)N[C@H]3COc4cc(N5CCN[C@@H](C)C5)ccc4C3)sc2n1` [Example 2-8, 3-amino-6-methyl-N-((R)-7-((S)-3-methylpiperazin-1-yl)chroman-3-yl)thieno[2,3-b]pyridine-2-carboxamide] it was 1 to 50 nM; in that of `Cc1ccc2c(N)c(C(=O)N[C@H]3COc4cc(N5CCN[C@H](C)C5)ccc4C3)sc2n1` [Example 2-9, 3-amino-6-methyl-N-((R)-7-((R)-3-methylpiperazin-1-yl)chroman-3-yl)thieno[2,3-b]pyridine-2-carboxamide], 1 to 50 nM; in that of `Cc1ccc2c(N)c(C(=O)N[C@H]3COc4cc(N5CCNCC56COC6)ccc4C3)sc2n1` [Example 2-10], 1 to 50 nM. In the case of `Cc1cnc2c(N)c(C(=O)N[C@H]3COc4cc(N5CC6CC(C5)N6)ccc4C3)sc2n1` [Example 2-11, N-((3R)-7-(3,6-diazabicyclo[3.1.1]heptan-3-yl)chroman-3-yl)-7-amino-3-methylthieno[2,3-b]pyrazine-6-carboxamide] it was 1 to 50 nM. For the compound `Cc1cnc2c(N)c(C(=O)N[C@H]3COc4cc(N5CC6COCC(C5)N6)ccc4C3)sc2n1` [Example 2-12, N-((3R)-7-(3-oxa-7,9-diazabicyclo[3.3.1]nonan-7-yl)chroman-3-yl)-7-amino-3-methylthieno[2,3-b]pyrazine-6-carboxamide], the IC50 is 50 to 200 nM. With `Cc1cnc2c(N)c(C(=O)N[C@H]3COc4cc(N5CC6CNCC(C5)O6)ccc4C3)sc2n1` [Example 2-13, N-((3R)-7-(9-oxa-3,7-diazabicyclo[3.3.1]nonan-3-yl)chroman-3-yl)-7-amino-3-methylthieno[2,3-b]pyrazine-6-carboxamide], the IC50 was in the range of 1 to 50 nM. With `Nc1c(C(=O)N[C@H]2COc3cc(N4CC5CC(C4)N5)ccc3C2)sc2nc(F)ccc12` [Example 2-14, N-((3R)-7-(3,6-diazabicyclo[3.1.1]heptan-3-yl)chroman-3-yl)-3-amino-6-fluorothieno[2,3-b]pyridine-2-carboxamide], the IC50 lay in the range of 1 to 50 nM. As for `Cc1nc2sc(C(=O)N[C@H]3COc4cc(N5CC6CC(C5)N6)ccc4C3)c(N)c2cc1F` [Example 2-15, N-((3R)-7-(3,6-diazabicyclo[3.1.1]heptan-3-yl)chroman-3-yl)-3-amino-5-fluoro-6-methylthieno[2,3-b]pyridine-2-carboxamide], the figure is 1 to 50 nM; as for `COc1nc2sc(C(=O)N[C@H]3COc4cc(N5CCNCC5)ccc4C3)c(N)c2cc1F` [Example 2-16, (R)-3-amino-5-fluoro-6-methoxy-N-(7-(piperazin-1-yl)chroman-3-yl)thieno[2,3-b]pyridine-2-carboxamide], 50 to 200 nM. Consider `Cc1cc(C)c2c(N)c(C(=O)N[C@H]3COc4cc(N5CCNCC5)ccc4C3)sc2n1` [Example 2-17, (R)-3-amino-4,6-dimethyl-N-(7-(piperazin-1-yl)chroman-3-yl)thieno[2,3-b]pyridine-2-carboxamide], for which the IC50 lay within 1 to 50 nM. In the case of `Cc1cc(C)c2c(N)c(C(=O)N[C@H]3COc4cc(N5CC6CC(C5)N6)ccc4C3)sc2n1` [Example 2-18, N-((3R)-7-(3,6-diazabicyclo[3.1.1]heptan-3-yl)chroman-3-yl)-3-amino-4,6-dimethylthieno[2,3-b]pyridine-2-carboxamide] it was 1 to 50 nM; in that of `Cc1cc(C)c2c(N)c(C(=O)N[C@H]3COc4cc(N5CC6CNCC(C5)C6(F)F)ccc4C3)sc2n1` [Example 2-19, 3-amino-N-((3R)-7-(9,9-difluoro-3,7-diazabicyclo[3.3.1]nonan-3-yl)chroman-3-yl)-4,6-dimethylthieno[2,3-b]pyridine-2-carboxamide], 1 to 50 nM.
